Reference: the supplement of paper PMC10307832

What was measured:
Test in all cases: relative viability (nuclei count vs DMSO), 5 days (fraction); higher = more cells survive
A-427 = test system: A-427
Procedure, shortened: (§1)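 Lung cancer cell lines in 1536-well plates were dosed by pin tool the day after seeding, either with one drug alone or with a fixed anchor-drug dose plus five library-drug doses (not always all listed) in √10 steps. After 5 days, cells were fixed and their nuclei stained in one step (final 0.05% Triton X-100, 1% formaldehyde, 1 ug/ml Hoechst), then counted on 4× images. Relative viability is the nuclei count in treated wells divided by that in vehicle wells. Values are medians of duplicate plates.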

CAL-12T = test system: CAL-12T
Procedure, shortened: as §1

COR-L 105 = test system: COR-L 105
Procedure, shortened: as §1

COR-L23 = test system: COR-L23
Procedure, shortened: as §1

EPLC-272H = test system: EPLC-272H
Procedure, shortened: as §1

HOP-62 = test system: HOP-62
Procedure, shortened: as §1

LCLC-103H = test system: LCLC-103H
Procedure, shortened: as §1

LXF-289 = test system: LXF-289
Procedure, shortened: as §1

NCI-H1395 = test system: NCI-H1395
Procedure, shortened: as §1

NCI-H1651 = test system: NCI-H1651
Procedure, shortened: as §1

NCI-H1975 = test system: NCI-H1975
Procedure, shortened: as §1

Compound: O=C(O)CCCCC(CCSCc1ccccc1)SCc1ccccc1 (stereo not given) [CPI-613] + C[C@]1(O)C[C@@H](c2nc(-c3ccc4ccc(-c5ccccc5)nc4c3)c3c(N)nccn32)C1 [Linsitinib] (partner 1 µM)
- relative viability (A-427; first compound 5 µM): 1.1
- relative viability (A-427; first compound 15.81 µM): 1.12
- relative viability (A-427; first compound 50 µM): 1.02
- relative viability (A-427; first compound 158.11 µM): 0.847
- relative viability (A-427; first compound 500 µM): 0.618
- relative viability (CAL-12T; first compound 5 µM): 0.865
- relative viability (CAL-12T; first compound 15.81 µM): 0.634
- relative viability (CAL-12T; first compound 50 µM): 0.561
- relative viability (CAL-12T; first compound 158.11 µM): 0.642
- relative viability (CAL-12T; first compound 500 µM): 0.62
- relative viability (COR-L 105; first compound 5 µM): 1.15
- relative viability (COR-L 105; first compound 15.81 µM): 0.77
- relative viability (COR-L 105; first compound 50 µM): 0.902
- relative viability (COR-L 105; first compound 158.11 µM): 0.664
- relative viability (COR-L 105; first compound 500 µM): 0.181
- relative viability (COR-L23; first compound 5 µM): 0.851
- relative viability (COR-L23; first compound 15.81 µM): 0.918
- relative viability (COR-L23; first compound 50 µM): 0.779
- relative viability (COR-L23; first compound 158.11 µM): 0.334
- relative viability (COR-L23; first compound 500 µM): 0.0236
- relative viability (EPLC-272H; first compound 5 µM): 1.21
- relative viability (EPLC-272H; first compound 15.81 µM): 1.15
- relative viability (EPLC-272H; first compound 50 µM): 1.05
- relative viability (EPLC-272H; first compound 158.11 µM): 0.759
- relative viability (EPLC-272H; first compound 500 µM): 0.698
- relative viability (HOP-62; first compound 5 µM): 1.05
- relative viability (HOP-62; first compound 15.81 µM): 1.05
- relative viability (HOP-62; first compound 50 µM): 0.863
- relative viability (HOP-62; first compound 158.11 µM): 0.611
- relative viability (HOP-62; first compound 500 µM): 0.0257
- relative viability (LCLC-103H; first compound 5 µM): 1.11
- relative viability (LCLC-103H; first compound 15.81 µM): 1.01
- relative viability (LCLC-103H; first compound 50 µM): 1.08
- relative viability (LCLC-103H; first compound 158.11 µM): 1
- relative viability (LCLC-103H; first compound 500 µM): 0.866
- relative viability (LXF-289; first compound 5 µM): 0.997
- relative viability (LXF-289; first compound 15.81 µM): 0.969
- relative viability (LXF-289; first compound 50 µM): 0.921
- relative viability (LXF-289; first compound 158.11 µM): 0.269
- relative viability (LXF-289; first compound 500 µM): 0.0192
- relative viability (NCI-H1395; first compound 5 µM): 1.09
- relative viability (NCI-H1395; first compound 15.81 µM): 0.961
- relative viability (NCI-H1395; first compound 50 µM): 1.08
- relative viability (NCI-H1395; first compound 158.11 µM): 1.1
- relative viability (NCI-H1395; first compound 500 µM): 1.04
- relative viability (NCI-H1651; first compound 5 µM): 0.968
- relative viability (NCI-H1651; first compound 15.81 µM): 0.92
- relative viability (NCI-H1651; first compound 50 µM): 0.836
- relative viability (NCI-H1651; first compound 158.11 µM): 0.316
- relative viability (NCI-H1651; first compound 500 µM): 0.133
- relative viability (NCI-H1975; first compound 5 µM): 0.938
- relative viability (NCI-H1975; first compound 15.81 µM): 1.03
- relative viability (NCI-H1975; first compound 50 µM): 1.13
- relative viability (NCI-H1975; first compound 158.11 µM): 0.541
- relative viability (NCI-H1975; first compound 500 µM): 0.0601
